Experimental data reported in patent EP0687258B1, “SUBSTITUTED IMINOACETONITRILES WITH MYOCARDIAL PROTECTIVE EFFECT” (HOECHST AKTIENGESELLSCHAFT, priority 1993, dated 1994).

Test system: isoliert perfundierten Rattenherzens
Assay: Isolated perfused rat heart (Langendorff), anoxia/reoxygenation, release of lactate dehydrogenase into the perfusate
Set-up: species or system Wistarratten
Conditions: for Freisetzung von Laktatdehydrogenase (großer initialer Enzymverlust) während der Reoxygenationsphase: closed circles, n = 4 hearts; for Enzymverlust nach anschließendem Auswaschen der Substanz: open circles
Procedure: Die pharmakologische Wirkung der erfindungsgemäßen Verbindungen der allgemeinen Formel I sowie des N-Morpholino-iminoacetonitrils wurden am Modell des isoliert perfundierten Rattenherzens untersucht.
Dazu wurden Herzen von 200 - 250 g schweren Wistarratten in einer temperaturkontrollierten Kammer (37°C) an ein Langendorff-Perfusionssystem gehängt. Die Kammer war während normoxischer Perfusionen mit Luft, während anoxischer mit 95 % N2 plus 5 % CO2 gefüllt. […] Für eine initiale Stabilisierungsperiode von 30 min wurden die Herzen mit einem oxygenierten salinen Medium perfundiert (Zusammensetzung in mM: 140.0 NaCl, 24.0 NaHCO3, 2.7 KCl, 0.4 NaH2PO4, 1.0 MgCl2, 1.8 CaCl2, 5.0 Glucose, äquilibriert mit 95 % O2 und 5 % CO2, pH 7.4). Für anoxische Perfusionen wurde diese initiale normoxische Stabilisierungsperiode gefolgt von 60 min Perfusion, mit einem Fluß von 5 ml/min von anoxoischem Medium (Zusammensetzung wie zuvor, aber ohne Glucose und äquilibriert mit 95 % N2 und 5 % CO2, pH 7.4). Die anoxisch perfundierten Herzen wurden nachfolgend durch Zurückschalten auf die initialen normoxischen Perfusionsbedingungen reoxygeniert.
In Versuchen mit den Testsubstanzen wurden diese dem anoxischen Perfusat während der letzten 15 min zugefügt. Die ersten 60 min der Reoxygenationsphase wurden ebenfalls in Gegenwart der Testsubstanzen durchgeführt. Danach wurde ohne diese Substanzen die normoxische Perfusion für weitere 45 min fortgesetzt.
Die Herzschädigung wurde charakterisiert durch die Freisetzung des zytosolischen Enzyms Laktatdehydrogenase (LDH) in das Perfusat. Während der Herzperfusion wurden 1-minütige Sammelproben des Effluats gesammelt. Die Aktivität von LDH wurde auch in Homogenaten ganzer Rattenherzen gemessen (präpariert in 100 mM Phosphatpuffer, pH 7.4, mit 1 % Triton X-100). […] Der Enzymverlust wurde in Prozenten der initialen Gesamtgewebsaktivitäten angegeben.

## N#CC=NN1CCOCC1 [N-Morpholino-iminoacetonitril]
Relative to BDM (10 mM vs 20 mM)
  Wirksamkeit im Vergleich zu BDM: etwa doppelt so hoch wie die von BDM
Reoxygenation after 60 min anoxia in presence of 10 mM test substance, Abbildung 1 B
  Freisetzung von Laktatdehydrogenase (großer initialer Enzymverlust) während der Reoxygenationsphase: weitgehend unterdrückt
Summary of the results shown
  reoxygenationsbedingte Myokardschädigung: deutlich reduziert
Washout after reoxygenation in presence of 10 mM test substance, Abbildung 1 B
  Enzymverlust nach anschließendem Auswaschen der Substanz: keiner weiteren Steigerung des Enzymverlusts

## CC(=O)C(C)=NO [Butandionmonoxim, reference compound]
Reoxygenation after 60 min anoxia in presence of 20 mM test substance, Abbildung 1 C
  Freisetzung von Laktatdehydrogenase (großer initialer Enzymverlust) während der Reoxygenationsphase: weitgehend unterdrückt
Washout after reoxygenation in presence of 20 mM test substance, Abbildung 1 C
  Enzymverlust nach anschließendem Auswaschen der Substanz: geringen initialen Steigerung des Enzymverlustes
